According to patent EP0363836A2, “Use of homopiperazines in the preparation of a medicament for preventing or treating organ rejection reactions” (BEHRINGWERKE Aktiengesellschaft, priority 1988, dated 1990):

Experiments:
Lewis Ratten = experiment: Rat tail skin transplantation, DA donor to Lewis recipient: graft survival time; format: in vivo; settings: d0-9, mean ± s of 5 animals, * p 0.001
Source text: (§1) In einem Experimentalansatz wurden Schwanzhautstückchen von Lewis Ratten mit einer Größe von etwa 0.5 x 1.0 cm auf den Schwanz von Fischer Ratten verpflanzt. In einem weiteren Modell wurde die Schwanzhaut von DA Ratten auf Lewis Ratten transplantiert. Die transplantierten Hautstücke werden vom Immunsystem der Empfängertiere als fremd erkannt und abgestoßen. Wie in Tabelle I zu sehen ist, betrug die Transplantüberlebenszeit im Lewis-Fischer-Rattenmodell in den Kontrollgruppen, die nur mit dem Lösungsmittel behandelt wurden zwischen 16 und 18 Tagen. Die Verbindung der Formel I mit R₁ = H wurde in verschiedenen Konzentrationen (1, 5, 10, 20 und 40 mg/kg Körpergewicht pro Injektion) an 10 aufeinanderfolgenden Tagen, beginnend mit dem Tag der Transplantation, entweder oral oder intraperitoneal verabreicht. Hierbei zeigt sich, daß sich durch verschiedene Konzentrationen der Substanz die Überlebenszeiten der Transplantate dosisabhängig von 15.8 ± 2.4 auf 26.8 ± 1.3 bzw. 18.4 ± 1.5 auf 28.4 ± 1.1 erhöhen ließen, wobei 10 mg/kg eine optimal wirksame Dosis zu sein scheinen.
Auch im anderen Transplantationsmodell mit DA Ratten (Spender) und Lewis Ratten (Empfänger) kommt es zu einer Verlängerung der Transplantatüberlebenszeiten durch die Gabe von Homopiperazinen. Hier stoßen die nur mit dem Lösungsmittel behandelten Kontrolltiere das Transplantat ca. am Tag 12 ab. Durch die Behandlung (p.o. oder i.p. […]

Fischer-Ratten = experiment: Rat tail skin transplantation, Lewis donor to Fischer recipient: graft survival time; format: in vivo; settings: d0-9, mean ± s of 5 animals
Source text: as §1

CC(C)(C)c1cc(C(=O)N2CCCNCC2)cc(C(C)(C)C)c1O [Verbindung der Formel I mit R¹ = H]
Tage bis zur Abstoßung (x ± s) (Lewis Ratten; 5 mg/kg, 5xip): (16.0 ± 1.2)* Tage
Tage bis zur Abstoßung (x ± s) (Lewis Ratten; 10 mg/kg, 5xip): (16.6 ± 1.8)* Tage
Tage bis zur Abstoßung (x ± s) (Lewis Ratten; 10 mg/kg, 10xpo): (16.6 ± 0.6)* Tage
Tage bis zur Abstoßung (x ± s) (Lewis Ratten; 25 mg/kg, 5xip): (17.8 ± 0.8)* Tage
Tage bis zur Abstoßung (x ± s) (Lewis Ratten; 25 mg/kg, 10xpo): (17.4 ± 0.6)* Tage
Tage bis zur Abstoßung (x ± s) (Lewis Ratten; 50 mg/kg, 5xip): (19.6 ± 1.8)* Tage
Tage bis zur Abstoßung (x ± s) (Lewis Ratten; 50 mg/kg, 10xpo): (18.6 ± 1.1)* Tage
Tage bis zur Abstoßung (x ± s) (Fischer-Ratten; 1 mg/kg, 10xip): (22.8 ± 2.2) Tage
Tage bis zur Abstoßung (x ± s) (Fischer-Ratten; 1 mg/kg, 10xpo): (21.6 ± 1.3) Tage
Tage bis zur Abstoßung (x ± s) (Fischer-Ratten; 5 mg/kg, 10xip): (25.0 ± 2.6) Tage
Tage bis zur Abstoßung (x ± s) (Fischer-Ratten; 5 mg/kg, 10xpo): (25.2 ± 0.8) Tage
Tage bis zur Abstoßung (x ± s) (Fischer-Ratten; 10 mg/kg, 10xip): (26.8 ± 1.3) Tage
Tage bis zur Abstoßung (x ± s) (Fischer-Ratten; 10 mg/kg, 10xip, listed as Verbindung der Formel I mit R₁ = H): 26.8 ± 1.3 Tage
Tage bis zur Abstoßung (x ± s) (Fischer-Ratten; 10 mg/kg, 10xpo): (28.4 ± 1.1) Tage
Tage bis zur Abstoßung (x ± s) (Fischer-Ratten; 10 mg/kg, 10xpo, listed as Verbindung der Formel I mit R₁ = H): 28.4 ± 1.1 Tage
Tage bis zur Abstoßung (x ± s) (Fischer-Ratten; 20 mg/kg, 10xip): (25.2 ± 1.6) Tage
Tage bis zur Abstoßung (x ± s) (Fischer-Ratten; 20 mg/kg, 10xpo): (26.8 ± 0.8) Tage
Tage bis zur Abstoßung (x ± s) (Fischer-Ratten; 40 mg/kg, 10xip): (22.4 ± 2.4) Tage
Tage bis zur Abstoßung (x ± s) (Fischer-Ratten; 40 mg/kg, 10xpo): (24.6 ± 2.0) Tage
